{"source": "patent US8822432B2", "about": "“Equol production accelerating composition” (Unitika Ltd., priority 2006, dated 2014)", "system": "equol production in the intestines", "assay": "Equol production accelerating effect in rats: equol concentration in blood plasma after 5 weeks of sample-mixed feed", "type": "in vivo, SD rats", "settings": "week 5", "source_text": "Calcium lactobionate (manufactured by Sigma Aldrich) was mixed with a rat powder feed (CRF-1, manufactured by Oriental Yeast Co., Ltd.) to a concentration of 0, 0.5 or 3.0% by weight. Also, as comparative controls, a 1.5% by weight difructose-dianhydride III (DFA-III) (manufactured by Wako Pure Chemical Industries, Ltd)-mixed powder feed and a 1.5% by weight fructo-oligosaccharide (FOS) (manufactured by Wako Pure Chemical Industries, Ltd)-mixed powder feed were used.\nAcclimatization rearing of 3 animals per group of 5-week-old SD rats (manufactured by Clea Japan, Inc.) was carried out for 1 week by allowing to freely ingest the powder feed CRF-1 and water. The time of completion of the acclimatization rearing was regarded as the […] Starting from the week 0, respective groups were allowed to freely ingest the calcium lactobionate-mixed powder feed prepared in the above. The control groups were allowed to ingest a general powder feed.\nThe conjugated soybean isoflavone presenting in the rat blood plasma was converted into its free state using β-glucuronidase, and then equol was measured using an LC/MS/MS system. As the instruments for analysis, HP1100 Series, Agilent Technologies, was used in the LC, and Quattro-Ultima, Micromass was used in the MS/MS. […]"}
{"smiles": "O=C([O-])[C@H](O)[C@@H](O)[C@H](O[C@@H]1O[C@H](CO)[C@H](O)[C@H](O)[C@H]1O)[C@H](O)CO.O=C([O-])[C@H](O)[C@@H](O)[C@H](O[C@@H]1O[C@H](CO)[C@H](O)[C@H](O)[C@H]1O)[C@H](O)CO.[Ca+2]", "note": "[calcium lactobionate, Calcium lactobionate]", "values": [{"measurement": "equol concentration in blood plasma, times of the control group", "setting": "calcium lactobionate-mixed powder feed (0.5 or 3.0% by weight), free ingestion", "value": "2 to 3 times of the control group"}, {"measurement": "equol concentration in blood plasma compared to the DFA-III and fructo-oligosaccharide", "setting": "mixed powder feed", "value": "high"}]}
